In patent US20090088432A1, “Thiazolinones and Oxazolinones and their Use as Ptp1b Inhibitors” (priority 2005, published 2009):

Target: T1, Recombinant human Protein-tyrosine phosphatase1B (PTP1B) (Homo sapiens, UniProt P18031)
T1 construct: Recombinant human Protein-tyrosine phosphatase1B (PTP1B) (amino acid 1-322 Biomol, USA); purchased Biomol, USA
T1 sequence (P18031 1-322): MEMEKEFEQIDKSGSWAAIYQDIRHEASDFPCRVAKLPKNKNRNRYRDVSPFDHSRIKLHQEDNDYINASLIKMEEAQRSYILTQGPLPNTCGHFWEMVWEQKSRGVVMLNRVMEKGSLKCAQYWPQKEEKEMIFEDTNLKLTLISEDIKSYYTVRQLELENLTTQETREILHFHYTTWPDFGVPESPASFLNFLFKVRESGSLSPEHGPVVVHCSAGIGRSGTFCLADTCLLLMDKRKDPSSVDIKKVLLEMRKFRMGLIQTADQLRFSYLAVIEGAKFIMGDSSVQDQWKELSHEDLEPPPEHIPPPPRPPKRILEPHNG
Test: PTP1B enzyme inhibition assay (pNpp substrate)
Format: biochemical
Conditions: inhibition of recombinant human PTP1B, pNpp 5 mM, 30 mins at 25° C; inhibitor concentration not given
Procedure, shortened: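 Recombinant human PTP1B (0.016 μg/well) preincubated with compound 30 min at 25 °C in 50 mM HEPES pH 7.4, 1 mM EDTA, 1 mM DTT, 0.05% Igepal, 1% DMSO final. Reaction started with 5 mM pNpp, run 30 min at 25 °C; p-nitrophenol read at 410 nm.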

Row | Compound | Activity Score
1 | O=C(Cc1ccc(NC2=NC(=O)C(=Cc3ccc(-c4ccccc4)cc3)S2)cc1)NS(=O)(=O)c1ccc(C(F)(F)F)cc1.[Na] [Compound 219, N-{2-[4-(5-Biphenyl-4-ylmethylene-4-oxo-4,5-dihydro-thiazol-2-ylamino)-phenyl]-acetyl}-4-trifluoromethyl-benzenesulfonamide, sodium salt] | (+++) (+++ = >50% inhibition)
2 | O=C(Cc1ccc(NC2=NC(=O)C(=Cc3ccc(-c4ccccc4)cc3)S2)cc1)NS(=O)(=O)c1ccc(F)cc1.[Na] [Compound 224, N-{2-[4-(5-Biphenyl-4-ylmethylene-4-oxo-4,5-dihydro-thiazol-2-ylamino)-phenyl]-acetyl}-4-fluoro-benzenesulfonamide, sodium salt] | (++) (++ = 20-50% inhibition)
3 | COc1ccc(S(=O)(=O)NC(=O)Cc2ccc(NC3=NC(=O)C(=Cc4ccc(-c5ccccc5)cc4)S3)cc2)cc1.[Na] [Compound 226, N-{2-[4-(5-Biphenyl-4-ylmethylene-4-oxo-4,5-dihydro-thiazol-2-ylamino)-phenyl]-acetyl}-4-methoxy-benzenesulfonamide, sodium salt] | (+++) (+++ = >50% inhibition)
4 | N#Cc1ccc(-c2ccc(C=C3SC(Nc4ccc(CC(=O)O)cc4)=NC3=O)cc2)cc1 [Compound 243, {4-[5-(4′-Cyano-biphenyl-4-ylmethylene)-4-oxo-4,5-dihydro-thiazol-2-ylamino]-phenyl}-acetic acid] | (+++) (+++ = >50% inhibition)
5 | (4-{2-[5-(3-Benzyloxy-naphthalen-2-ylmethylene)-4-oxo-4,5-dihydro-thiazol-2-ylamino]-acetyl amino}-phenyl)-acetic acid [Compound 22] | (+++) (+++ = >50% inhibition)
6 | (4-{5-[3-(3-Methoxy-benzyloxy)-naphthalen-2-ylmethylene]-4-oxo-4-4,5-dihydro-thiazol-2-ylamino}-phenyl)-sodium acetate [Compound 181] | (+) (+ = 10-20% inhibition)
7 | [4-(N′-{4-Oxo-5-[4-(1H-tetrazol-5-yl)-benzylidene]-4,5-dihydro-thiazol-2-yl}-hydrazino)-phenyl]-acetic acid [Compound 34] | (+++) (+++ = >50% inhibition)
8 | {3-[5-(1-Carbamoylmethyl-1H-indol-3-ylmethylene)-4-oxo-4,5-dihydro-thiazol-2-ylamino]-phenyl}-acetic acid [Compound 23] | (+++) (+++ = >50% inhibition)

Now from value to compound:

Row | Activity Score | Compound
9 | (++) (++ = 20-50% inhibition) | O=C(Cc1ccc(NC2=NC(=O)C(=Cc3ccc(-c4ccccc4)cc3)S2)cc1)NS(=O)(=O)c1cccs1.[Na] [Compound 223, Thiophene-2-sulfonic acid {2-[4-(5-biphenyl-4-ylmethylene-4-oxo-4,5-dihydro-thiazol-2-ylamino)-phenyl]-acetyl}-amide, sodium salt]
10 | (+) (+ = 10-20% inhibition) | CS(=O)(=O)NC(=O)Cc1ccc(NC2=NC(=O)C(=Cc3ccc(-c4ccccc4)cc3)S2)cc1.[Na] [Compound 225, N-{2-[4-(5-Biphenyl-4-ylmethylene-4-oxo-4,5-dihydro-thiazol-2-ylamino)-phenyl]-acetyl}-methanesulfonamide, sodium salt]
11 | (+) (+ = 10-20% inhibition) | CSc1ccc(-c2ccc(C=C3SC(Nc4ccc(CC(=O)NS(=O)(=O)c5ccc(C(F)(F)F)cc5)cc4)=NC3=O)c(F)c2)cc1.[Na] [Compound 239, N-(2-{4-[5-(3-Fluoro-4′-methylsulfanyl-biphenyl-4-ylmethylene)-4-oxo-4,5-dihydro-thiazol-2-ylamino]-phenyl}-acetyl)-4-trifluoromethyl-benzenesulfonamide sodium salt]
